Data from patent US6713628B2, “Process for preparing pharmacologically acceptable salt of N-(1(S)-ethoxycarbonyl-3-phenylpropyl)-L-alanyl-amino acid” (Kaneka Corporation, priority 1997, dated 2004).
One block for each molecule: values may come before it.

Experiments:
Format in all cases: physicochemical
[1] = Formation of diketopiperazine derivative (3) from enalapril in ethyl acetate of given water content or in water, 30° C., 6 hours, HPLC (Example 8); details: about 13% by weight solution
Procedure: (§1) The HPLC analysis was carried out under the following conditions:
According to Example 1, an ethyl acetate solution of N-(1(S)-ethoxycarbonyl-3-phenylpropyl)-L-alanyl-L-proline was prepared. 129.40 Grams of this organic phase was washed twice with 30 ml of saturated brine, and dehydrated with magnesium sulfate. The solvent was concentrated and, then, the concentrated liquid was dried under reduced pressure to obtain an oily reaction product. This product was dissolved in ethyl acetate having a water content shown in Table 3 or water to prepare a solution having a concentration of about 13% by weight, and the solution was warmed to 30° C. and stirred for 6 hours. The amount produced of the diketopiperazine derivative (3) was analyzed with HPLC, and the relation between water content and the average increase in the diketopiperazine derivative (3) per hour was investigated. The molar ratio in Table 3 means mol number of water per 1 mol of N-(1(S)-ethoxycarbonyl-3-phenylpropyl)-L-alanyl-L-proline.

[2] = Partition of enalapril between ethyl acetate and water against temperature, HPLC (Example 11); details: ethyl acetate solution + H2O 10% by volume
Procedure: as §1
According to Example 1, an ethyl acetate solution of N-(1(S)-ethoxycarbonyl-3-phenylpropyl)-L-alanyl-L-proline was prepared. To 50 ml of the ethyl acetate solution was added H2O in an amount of 10% by volume (based on ethyl acetate). The mixture was stirred for 10 minutes at each temperature shown in Table 6, and allowed to stand still for 10 minutes and, then, separated. The amount of N-(1(S)-ethoxycarbonyl-3-phenylpropyl)-L-alanyl-L-proline in the water-saturated organic phase was analyzed with HPLC, and the relation between the temperature and the partition ratio to the organic phase was investigated.

[3] = Formation of diketopiperazine derivative (3) from enalapril maleate in ethyl acetate containing 0.1% water or in H2O, 60° C., 6 hours, HPLC (Example 9); details: 16% by weight
Procedure: as §1
According to Example 1, N-(1(S)-ethoxycarbonyl-3-phenylpropyl)-L-alanyl-L-proline maleate was prepared. Thereto was added ethyl acetate containing 0.1% water or H2O to prepare a solution having a concentration of 16% by weight, and the solution was warmed to 60° C. and stirred for 6 hours. The amount produced of the diketopiperazine derivative (3) was analyzed with HPLC, and the relation between water content and the average increase in the diketopiperazine derivative (3) per hour was investigated.

[4] = Formation of diketopiperazine derivative (3) from the Example 10 oil in ethyl acetate of given water content, 10° C., 6 hours, HPLC (Example 10); details: about 12% by weight solution
Procedure: as §1
To 5.00 g (28.2 mmol) of 1,2,3,4-tetrahydroisoquinoline-3-carboxylic acid were added 20 ml of ethyl acetate and 10 ml of H2O and, then, the pH was adjusted to 10.5 with 30% by weight NaOH aqueous solution. The inner temperature was regulated to 20° C. and, then, 4.31 g (14.1 mmol) of a crystal of N-(1(S)-ethoxycarbonyl-3-phenylpropyl)-L-alanine.N-carboxyanhydride was slowly added over 5 hours with stirring. During the addition, the reaction mixture was maintained at a pH of 10.5±1.0 with adding dropwise 30% by weight NaOH aqueous solution, and simultaneously, the inner temperature was maintained at 20° C. and the agitating power was maintained at 1.3 kW/m^3. After completion of the addition, the stirring was continued for 2 hour under the same conditions. The mixture was cooled to 5° C., and the pH thereof was adjusted to 4.5±0.2 with 35% by weight HCl. Then, under the same conditions, the stirring was continued for 10 minutes to complete the decarboxylation. The deposited material was removed by filtration under reduced pressure, and the organic phase was separated at 5° C. and the water phase was further extracted once with 20 ml of ethyl acetate at 10° C. The resulting organic phases were mixed and then washed three times with H2O in an amount of 5% by volume of the organic phase at 5° C. The organic phase was concentrated under reduced pressure to obtain 6.43 g of an oil. The oil was dissolved in ethyl acetate having a water content shown in Table 5 to prepare a solution having a concentration of about 12% by weight, and the resulting solution was stirred for 6 hours at 10° C. The amount produced of the diketopiperazine derivative (3) was analyzed with HPLC, and the relation between water content and the average increase in the diketopiperazine derivative (3) per hour was investigated.

Average increase per hour of diketopiperazine derivative (3) ([1]; ethyl acetate, water content 0.1% by weight (molar ratio 0.1)): 2.85 % by weight/hr | Average increase per hour of diketopiperazine derivative (3) ([1]; ethyl acetate, water content 0.4% by weight (molar ratio 0.6)): 2.06 % by weight/hr | Average increase per hour of diketopiperazine derivative (3) ([1]; ethyl acetate, water content 1.1% by weight (molar ratio 1.6)): 1.32 % by weight/hr | Average increase per hour of diketopiperazine derivative (3) ([1]; ethyl acetate, water content 2.1% by weight (molar ratio 3.1)): 0.99 % by weight/hr | Average increase per hour of diketopiperazine derivative (3) ([1]; ethyl acetate, water content 3.8% by weight (molar ratio 6.1)): 0.48 % by weight/hr | Average increase per hour of diketopiperazine derivative (3) ([1]; ethyl acetate, water content 5.1% by weight (molar ratio 8.2)): 0.39 % by weight/hr | Average increase per hour of diketopiperazine derivative (3) ([1]; water, water content 100% by weight (molar ratio 160)): 0.02 % by weight/hr | Partition ratio to organic phase ([2]; 5° C.): 26% | Partition ratio to organic phase ([2]; 10° C.): 35% | Partition ratio to organic phase ([2]; 20° C.): 57% | Partition ratio to organic phase ([2]; 25° C.): 72% | Partition ratio to organic phase ([2]; 30° C.): 88% | Partition ratio to organic phase ([2]; 40° C.): 94%
SMILES: CCOC(=O)[C@H](CCc1ccccc1)N[C@@H](C)C(=O)N1CCC[C@H]1C(=O)O [N-(1(S)-ethoxycarbonyl-3-phenylpropyl)-L-alanyl-L-proline]

Average increase per hour of diketopiperazine derivative (3) ([3]; H2O): 0.06 % by weight/hr | Average increase per hour of diketopiperazine derivative (3) ([3]; ethyl acetate containing 0.1% water): 0.55 % by weight/hr
SMILES: CCOC(=O)[C@H](CCc1ccccc1)N[C@@H](C)C(=O)N1CCC[C@H]1C(=O)O.O=C(O)/C=C\C(=O)O [N-(1(S)-ethoxycarbonyl-3-phenylpropyl)-L-alanyl-L-proline maleate]

Average increase per hour of diketopiperazine derivative (3) ([4]; water content 0.1% by weight): 5.3 % by weight/hr | Average increase per hour of diketopiperazine derivative (3) ([4]; water content 1.0% by weight): 2.2 % by weight/hr | Average increase per hour of diketopiperazine derivative (3) ([4]; water content 2.1% by weight): 1.7 % by weight/hr | Average increase per hour of diketopiperazine derivative (3) ([4]; water content 3.8% by weight): 1.3 % by weight/hr
SMILES: CCOC(=O)[C@H](CCc1ccccc1)N[C@@H](C)C(=O)N1Cc2ccccc2C[C@H]1C(=O)O [Example 10]
